This passage reports IC50 results from patent US11667651B2, “Aminopyridine derivatives as phosphatidylinositol phosphate kinase inhibitors” (HiberCell, Inc., priority 2017, dated 2023).

Common to all, as to format: biochemical
The target of one test is T1, PIP4K2B (Homo sapiens, UniProt P78356).
T1 construct: made in house; host or cells: E. coli
T1 sequence (P78356 1-416): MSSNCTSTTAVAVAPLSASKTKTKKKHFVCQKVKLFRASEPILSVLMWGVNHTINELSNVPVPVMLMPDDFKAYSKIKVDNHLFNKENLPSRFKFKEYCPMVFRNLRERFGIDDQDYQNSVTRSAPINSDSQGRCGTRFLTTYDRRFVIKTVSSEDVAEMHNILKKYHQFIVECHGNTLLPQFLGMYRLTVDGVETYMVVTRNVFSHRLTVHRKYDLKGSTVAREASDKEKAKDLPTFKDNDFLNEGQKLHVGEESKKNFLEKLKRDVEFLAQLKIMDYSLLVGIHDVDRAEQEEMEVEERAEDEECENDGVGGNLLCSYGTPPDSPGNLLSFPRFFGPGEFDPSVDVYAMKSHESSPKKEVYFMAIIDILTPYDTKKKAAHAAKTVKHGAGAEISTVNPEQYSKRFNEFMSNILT
Kind of test: Trans-FI P kinase assay PIP4K2B (Table 4). The settings on record: compounds listed under IC50 bins; read-out: Trans-FI P kinase assays: PIP4K2B IC50. The source says:
GST tagged PIP4KtypeIIA and B enzymes were overexpressed in E. Coli and purified to >80% homogeneity. Phosphatidyl inositol-5-phosphate (PI5P, Cat. #850152, Avanti Polar Lipids Inc.) was used as the lipid substrate and phosphatidyl ethanolamine (DOPE 18:1, Cat. #850725, Avanti Polar Lipids Inc.) was used as the carrier lipid for assays. Ultrapure ATP and GTP was purchased from Bellbrooke Labs. ADP Glo reagents were obtained from Promega. Transcreener FI reagent was obtained from Bellbrooke labs.
GST-tagged PIP4KtypeIIB (3.4 μL, 2.77 mg/mL) was diluted to 5 mL using HNE buffer to yield 5× enzyme stock (25 nM)
Lipid Preparation: In a 10 mL pyrex glass vial, […] were suspended in 2.5 mL of HEPES buffer mix and 2.5 mL of H:E buffer. The contents were mixed and sonicated for 3 min to yield a translucent lipid stock.
Compound Preparation: Compounds were stored as 5 mM stocks in neat DMSO as room temperature in glass vials. 5 mM stocks were diluted to 2 mM and then serially diluted (3×) in neat DMSO in 96 well polypropylene plates. From the serially diluted stocks, 3 μL was delivered into 250 μL of 25% DMSO (in water) to generate 5× compound stocks. Typically, the highest compound conc. was 24 μM.
The assay volume was kept at 25 μL. To each well of the reaction plate, 10 μL of lipid stock (1:1 ratio PI5P:DOPE) was delivered. This was followed by the addition of 5 μL of compound in 25% DMSO. Then, to each well, 5 μL of 25 nM (5×) typeIIB enzyme was delivered. The contents were mixed well and incubated for 1 h at 27° C. After 1 h, reaction was initiated by adding 5 μL of 500 μM GTP and the contents were mixed well with a multi-channel pipetteman. The final concentration of the reagents are as follows: 50 mM HEPES, pH 7.3, 10 mM MgCl2, 20 mM NaCl, 0.01% v/v triton-X100, 5% DMSO, 100 μM GTP, 80 μM (2 μg) PI5P, 2 μg DOPE, and 5 nM PIP4KIIB Typically, the highest conc. of compounds was 4.8 μM and the lowest conc. was 0.
After 2 h, the reaction was quenched by adding 25 μL of transcreener FI reagent. The contents were incubated at rt for 1 h and the Fluorescence (Ex: 584 Em: 623) was read using Molecular Devices Paradigm plate reader. […] The blanks were averaged and subtracted from all other wells. Using a calibration curve, RFU was converted to μM GDP (product). IC50 was calculated by plotting the residual activity (expressed as % No inhibitor control) vs. log [Inh. conc.]

The target of test [1] is T2, PIP4K2A (Homo sapiens, UniProt P48426).
T2 sequence (P48426 1-406): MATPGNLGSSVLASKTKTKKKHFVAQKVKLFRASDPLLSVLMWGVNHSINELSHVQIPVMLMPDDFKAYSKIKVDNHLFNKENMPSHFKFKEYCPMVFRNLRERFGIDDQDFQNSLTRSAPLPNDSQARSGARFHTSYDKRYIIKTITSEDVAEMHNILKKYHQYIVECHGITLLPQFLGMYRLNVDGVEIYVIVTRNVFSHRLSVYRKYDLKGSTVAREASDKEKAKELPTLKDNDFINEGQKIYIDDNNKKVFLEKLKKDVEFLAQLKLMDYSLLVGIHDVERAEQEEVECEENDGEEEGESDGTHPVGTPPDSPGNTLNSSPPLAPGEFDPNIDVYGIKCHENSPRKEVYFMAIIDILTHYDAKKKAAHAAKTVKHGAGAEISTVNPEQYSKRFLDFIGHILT
Kind of test: ADP-glo kinase assay PIP4K 2A (Table 3). More on the design: made in house; host or cells: E. coli. The settings on record: compounds listed under IC50 bins. How it is done:
Dilution series of the compounds were prepared in DMSO at 100 times the final assay concentration (n1=n0/3 in 10 points). The compounds were further diluted to three times the assay concentration in assay buffer (20 mM MOPS pH 7.2, 25 mM magnesium chloride, 0.005% Tween 20). 6 μL of the diluted compounds were added to a 384 well assay plate followed by 9 μL of a mix consisting of 4 nM PIP4K2A (full length protein, SignalChem) and 100 μM PI(5)P diC8 (Tebu-Bio). Enzyme and compounds were pre-incubated at room temperature for 15 minutes.
Then 3 μL of a solution containing 60 μM ATP (Promega) in assay buffer was added to the wells containing compound and enzyme and mixing was performed by pipetting several times. The reaction was incubated at room temperature for 1 h. Then 18 μL of ADP-Glo™ Reagent (Promega) was added to stop the kinase reaction and deplete the unconsumed ATP, mixing was performed by pipetting several times. The plate was incubated at room temperature for 40 minutes before addition of 36 μL of Kinase Detection Reagent (Promega) to convert ADP to ATP and introduce luciferase and luciferin to detect ATP. The reaction was incubated at room temperature for 40 minutes before the luminescence was measured in a in a Victor 3V 1420 multilabel counter (Perkin Elmer).
Percent inhibition of the compounds as compared to dimethyl sulfoxide treated control samples was calculated. Compound concentration versus percent inhibition were fitted to generate IC50 values. […]
Background: ADP-Glo first removes unused ATP, then detects ADP through luciferase.

Test [2] addresses T2, PIP4K2A. Kind of test: Kinase Assay PIP4K2 A (Table 2). More on the design: 4 nM PIP4K2A (full length protein, SignalChem); purchased SignalChem. The settings on record: compounds listed under IC50 bins. The gist of the method:
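Full-length PIP4K2A (4 nM in the added mix, with 100 μM PI(5)P diC8) pre-incubated 15 min at RT with compounds (10-point, 3-fold series) in 20 mM MOPS pH 7.2, 25 mM MgCl2, 0.005% Tween 20. ATP added from a 60 μM solution, 1 h at RT; ADP-Glo luminescence, IC50 fitted from % inhibition versus DMSO.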

`CN(C)C/C=C/C(=O)Nc1ccc(C(=O)Nc2cncc(Nc3ccc(-c4ccc(N5CCCC5=O)cc4)cn3)c2)cc1` [Example 167, (E)-4-(4-(dimethylamino)but-2-enamido)-N-(5-((5-(4-(2-oxopyrrolidin-1-yl)phenyl)pyridin-2-yl)amino)pyridin-3-yl)benzamide]: the half-maximal inhibitory concentration (IC50) at PIP4K2B and on PIP4K2A [1] was 10 to 100 nM each time.

For `CN(C)CCCC(=O)Nc1ccc(C(=O)Nc2cncc(Nc3ccc(-c4ccc(N5CCCC5=O)cc4)cn3)c2)cc1` [Example 168, 4-(4-(dimethylamino)butanamido)-N-(5-((5-(4-(2-oxopyrrolidin-1-yl)phenyl)pyridin-2-yl)amino)pyridin-3-yl)benzamide], the concentration for half-maximal inhibition (IC50) at PIP4K2B and against PIP4K2A [1] was 10 to 100 nM in each case.

In the case of `CN(C)C/C=C/C(=O)Nc1cccc(CCC(=O)Nc2cncc(Nc3ccc(-c4ccc(N5CCCC5=O)cc4)cn3)c2)c1` [Example 169, (E)-4-(dimethylamino)-N-(3-(3-oxo-3-((5-((5-(4-(2-oxopyrrolidin-1-yl)phenyl)pyridin-2-yl)amino)pyridin-3-yl)amino)propyl)phenyl)but-2-enamide], the half-maximal inhibitory concentration (IC50) at PIP4K2B and at PIP4K2A [1] was 10 to 100 nM throughout.

On to `CN(C)CCCC(=O)Nc1cccc(CCC(=O)Nc2cncc(Nc3ccc(-c4ccc(N5CCCC5=O)cc4)cn3)c2)c1` [Example 170, 4-(dimethylamino)-N-(3-(3-oxo-3-((5-((5-(4-(2-oxopyrrolidin-1-yl)phenyl)pyridin-2-yl)amino)pyridin-3-yl)amino)propyl)phenyl)butanamide], for which the half-maximal inhibitory concentration (IC50) at PIP4K2B and on PIP4K2A [1] was 10 to 100 nM throughout.

As to `O=C(COc1cccc2c1C(=O)N(C1CCC(=O)NC1=O)C2=O)NCCCC(=O)Nc1ccc(C(=O)Nc2cncc(Nc3ccc(-c4ccc(N5CCCC5=O)cc4)cn3)c2)cc1` (stereo not drawn) [Example 292, 4-(4-(2-((2-(2,6-dioxopiperidin-3-yl)-1,3-dioxoisoindolin-4-yl)oxy)acetamido)butanamido)-N-(5-((5-(4-(2-oxopyrrolidin-1-yl)phenyl)pyridin-2-yl)amino)pyridin-3-yl)benzamide], the values for the IC50 on PIP4K2B and on PIP4K2A [2] were 10 to 100 nM and 100 to 1000 nM, respectively.

As for `COCc1nc(Nc2cnc3c(c2)N2C(=O)CC[C@H]2CO3)ncc1-c1ccc(C(=O)N(C)C)cc1` [Example 293, (S)-4-(4-(methoxymethyl)-2-((9-oxo-6a,7,8,9-tetrahydro-6H-pyrido[2,3-b]pyrrolo[1,2-d][1,4]oxazin-2-yl)amino)pyrimidin-5-yl)-N,N-dimethylbenzamide], the half-inhibitory concentration (IC50) at PIP4K2B and on PIP4K2A [2] was 10 to 100 nM in each case.

Regarding `COc1nc(Nc2cnc3c(c2)N2C(=O)CC[C@H]2CO3)ncc1-c1ccc(C(=O)N(C)C)cc1` [Example 294, (S)-4-(4-methoxy-2-((9-oxo-6a,7,8,9-tetrahydro-6H-pyrido[2,3-b]pyrrolo[1,2-d][1,4]oxazin-2-yl)amino)pyrimidin-5-yl)-N,N-dimethylbenzamide], the IC50 on PIP4K2B and against PIP4K2A [2] was 1 to 10 nM throughout.

In the case of `O=C1CCC(N2C(=O)c3cccc(NCCOCCOCCOCC(=O)Nc4ccc(C(=O)Nc5cncc(Nc6ccc(-c7ccc(N8CCCC8=O)cc7)cn6)c5)cc4)c3C2=O)C(=O)N1` (stereo not drawn) [Example 296, 4-(2-(2-(2-(2-((2-(2,6-dioxopiperidin-3-yl)-1,3-dioxoisoindolin-4-yl)amino)ethoxy)ethoxy)ethoxy)acetamido)-N-(5-((5-(4-(2-oxopyrrolidin-1-yl)phenyl)pyridin-2-yl)amino)pyridin-3-yl)benzamide], the IC50 lay in the range of 10 to 100 nM on PIP4K2B and 100 to 1000 nM at PIP4K2A [2].

For the molecule `CC(C)Cn1cnnc1-c1ccc(-c2ccc(Nc3cnc4c(c3)N3C(=O)CC[C@H]3CO4)nc2)cc1` [Example 297, (S)-2-((5-(4-(4-isobutyl-4H-1,2,4-triazol-3-yl)phenyl)pyridin-2-yl)amino)-6,6a,7,8-tetrahydro-9H-pyrido[2,3-b]pyrrolo[1,2-d][1,4]oxazin-9-one], the 50% inhibitory concentration (IC50) at PIP4K2B and against PIP4K2A [2] was 10 to 100 nM throughout.

In general, IC50 refers to the concentration that gives 50% inhibition.
